Data taken from paper PMC3896336, “Discovery of a Novel Target for the Dysglycemic Chromogranin A Fragment Pancreastatin: Interaction with the Chaperone GRP78 to Influence Metabolism” (PLoS ONE, 2014).
“Also recorded” adds a separate entry of the source. Where no end group is shown, it is not given here.

Key:
db/db mice = tested on: db/db mice; design: method as in PMID 16931765; settings: ref [38]; cited from earlier work
[1] = tested on: human G6P-ase promoter-luciferase reporter, HepG2 hepatocytes; experiment: G6Pase promoter-luciferase reporter activity in HepG2 hepatocytes; type: cell-based; settings: for effect on reduction of G6Pase promoter activity by GRP78 over-expression: PST 100 nM, HepG2 with pCMV-GRP78, Fig. 6B; for effect on reduction of G6Pase promoter activity by GRP78 over-expression / basal G6Pase-luciferase promoter activity with GRP78 ATPase inhibitor: VER-155008 1 µM or ADP 10 µM; for basal G6Pase-luciferase promoter activity with GRP78 ATPase inhibitor: HepG2, Fig. 6B
Description: The human G6P-ase promoter-luciferase reporter plasmid has been described. The GRP78 (BIP) promoter-luciferase reporter was a gift from Bruce M. Spiegelman (Harvard Medical School). The pCMV promoter-driven human GRP78 (HSPA5) expression plasmid was from Origene <www.origene.com/>. pSV-Beta-Gal (a transfection efficiency control plasmid, in which the SV40 early promoter drives expression of beta-galactosidase) was obtained from Promega <www.promega.com>.
Cells were plated on 24 well tissue culture plates the day before transfection. 0.5 to 1.0 µg of total DNA per well was used for transfection with Transfectin (BioRad). In some experiments, pSV-Beta-Gal (Promega; in which the SV40 early promoter drives expression of beta-galactosidase) was co-transfected as a transfection efficiency control. After 5 hrs supernatants were removed and fresh media containing different compounds as mentioned in the respective figures were added. 18 hrs after transfection, supernatants were removed and cells were lysed in passive lysis buffer (Promega) and the luciferase and beta-galactosidase activity were measured. Luciferase activity was normalized by beta-galactosidase as well as cellular protein, determined by dye-binding (coomassie G-250; BioRad).
Figure 5 PST acts on both uptake and mobilization steps for glucose: Effects on cellular glucose metabolism and insulin action. (A) PST and glucose uptake. Mouse 3T3-L1 cells were induced to differentiate into adipocytes, and 7–10 days post-differentiation glucose uptake was measured by incubating cells with 2-deoxy-[^3H]-glucose in the presence or absence of PST (100 nM), insulin (100 nM), or insulin plus PST (100 nM each). (B) Glucose mobilization and PST: Effects on expression of the gluconeogenic/glycogenolytic enzyme G6Pase (glucose-6-phosphatase). Human HepG2 hepatocytes were transfected with a glucose-6-phosphatase (G6P-ase)→luciferase reporter plasmid along with a beta gal reporter plasmid as mentioned in the experimental procedures, and 5 hrs after transfection cells were treated with PST (100 nM), insulin (100 nM), or both insulin and PST (100 nM each). Cells were harvested at 18–20 hrs after transfection to measure luciferase activity, beta gal activity and protein.
(§1) Figure 6 Role of the gluconeogenic/glycogenolytic enzyme G6Pase: Response to PST, GRP78, and inhibition of GRP78's ATPase enzymatic activity. (A) G6Pase expression, PST, and GRP78. Human HepG2 hepatocytes were transfected with G6P-ase→luciferase, along with pCMV-GRP78 or an empty vector (pCMV promoter without insert). 5 hrs after transfection, cells were treated with PST (100 nM) itself (versus mock), or by UPR activation (tunicamycin, 5 µg/mL; or thapsigargin, 0.3 µM). Cells were harvested at 18–20 hrs to measure luciferase activity and protein. (B) G6Pase expression during ATPase enzymatic activity inhibition of GRP78. Human HepG2 hepatocytes were transfected as in (A), and 5 hrs later were treated with the GRP78 ATPase inhibitors VER-155008 (1 µM), ADP (10 µM), or PST (100 nM). Cells were harvested at 18–20 hrs to measure luciferase activity and protein. (C) GRP78 expression: Visualization by immunoblot. Changes in GRP78 expression are shown by anti-GRP78 immunoblot (control: anti-actin), during either UPR activation (by thapsigargin 0.3 µM or tunicamycin 5 µg/mL), or exogenous over-expression (transfection of pCMV-GRP78).

[2] = tested on: GRP78 protein expression, HepG2 hepatocytes; experiment: GRP78 protein expression by anti-GRP78 immunoblot in hepatocytes; type: cell-based, human; settings: UPR activation by tunicamycin 5 µg/mL or thapsigargin 0.3 µM; Fig. 6C
Description: as §1

cellular glucose uptake = settings: naturally occurring human variant; ref [14]; cited from earlier work
Description: The activity of PST as a regulatory gastroenteropancreatic peptide has been established in the light of a variety of biological effects in a number of tissues [6]–[9], including its role in modulation of energy metabolism, with a general counter-regulatory effect to insulin. […] Metabolic effects of PST have been c ...

GRP78 (HSPA5, BIP) = experiment: Ligand affinity isolation of PST binding protein from mouse liver membranes (biotinylated peptide as bait, streptavidin agarose, SDS-PAGE, LC-MS/MS); settings: control ligand affinity experiment, immobilized biotinylated catestatin (human CHGA352–372), liver homogenate; results not shown

O=C(O)CCCc1ccccc1 [4-phenylbutyric acid (PBA), 4-phenylbutyric acid]
ER stress, glucose homeostasis and insulin sensitivity (db/db mice): reduced ER stress, with restored glucose homeostasis and improved insulin sensitivity

Nc1ncnc2c1ncn2[C@@H]1O[C@H](COP(=O)(O)OP(=O)(O)O)[C@@H](O)[C@H]1O [ADP, adenosine 5′-diphosphate]
effect on reduction of G6Pase promoter activity by GRP78 over-expression [1]: could not fully overcome the effect of GRP78 over-expression; also recorded: could still be partially reversed
basal G6Pase-luciferase promoter activity with GRP78 ATPase inhibitor [1]: basal G6Pase-luciferase promoter activity rose (Fig. 6B) to a level comparable to PST activation

C[C@H](CCC(=O)NCCS(=O)(=O)O)[C@H]1CC[C@H]2[C@@H]3[C@@H](O)C[C@@H]4C[C@H](O)CC[C@]4(C)[C@H]3CC[C@]12C [TUDCA, tauroursodeoxycholic acid]
ER stress, glucose homeostasis and insulin sensitivity (db/db mice): reduced ER stress, with restored glucose homeostasis and improved insulin sensitivity

N#Cc1ccc(COC[C@H]2O[C@@H](n3c(NCc4ccc(Cl)c(Cl)c4)nc4c(N)ncnc43)[C@H](O)[C@@H]2O)cc1 [VER-155008]
effect on reduction of G6Pase promoter activity by GRP78 over-expression [1]: could not fully overcome the effect of GRP78 over-expression; also recorded: could still be partially reversed
basal G6Pase-luciferase promoter activity with GRP78 ATPase inhibitor [1]: basal G6Pase-luciferase promoter activity rose (Fig. 6B) to a level comparable to PST activation

C/C=C(/C)C(=O)O[C@H]1C(C)=C2[C@H]([C@@H]1OC(=O)CCCCCCC)[C@@](C)(OC(C)=O)C[C@H](OC(=O)CCC)[C@@]1(O)[C@H]2OC(=O)[C@@]1(C)O [thapsigargin]
increase in GRP78 protein expression as compared to untreated cells [2]: ~15 fold

Gly297Ser: naturally occurring human PST variant, Gly297Ser in the functionally important carboxyl terminus of the peptide (SEALAVDGAGKPGAEEAQDPEGKGEQEHSQQKEEEEEMAVVPQSLFRG; ends and bridges not checked; UniProt P10645 272-319, looked up, variant G297S)
potency to inhibit cellular glucose uptake (cellular glucose uptake): substantially increasing its potency to inhibit cellular glucose uptake

catestatin
pull down of GRP78 (GRP78 (HSPA5, BIP)): did not pull down the GRP78 protein

insulin
suppression of PST-induced activation of the G6Pase promoter ([1]; insulin 100 nM plus PST 100 nM, HepG2, Fig. 5B): ~40%

tunicamycin
increase in GRP78 protein expression as compared to untreated cells [2]: ~15 fold
